Values quoted from earlier work in article PMC8435724, “A Single L/D-Substitution at Q4 of the mInsA2-10 Epitope Prevents Type 1 Diabetes in Humanized NOD Mice” (Frontiers in Immunology, 2021).

What was measured:
T cells of T1D patients = test system: T cells of T1D patients
From the text: Thus, human InsA2-10 is likely to be an immunogenic target for diabetic patients.

[1] = test system: insulin B15-23-reactive CD8^+ T cell clone G9C8; conditions: cytotoxicity and IFN-γ production assays

Substance | presence of specific T cell responses (in words) (T cells of T1D patients) | antagonist activity on clone G9C8 (in words) [1]
GIVEQCCTSI [InsA1-10, human proinsulin (PPI) 90-99 or InsA1-10 (…)] | presence of specific T cell responses | 
G6H: APL of insulin B15-23 (LYLVCGERG) substituted at position 6 (LYLVCHERG) |  | antagonist activity
R8L: APL of insulin B15-23 (LYLVCGERG) substituted at position 8 (LYLVCGELG) |  | antagonist activity
